pEC50: −log10 of the molar value.

By IC90 is commonly meant the concentration at which the effect reaches the 90% level. Low readings indicate an effect from little substance, high ones a need for much substance. By pEC50 is commonly meant the EC50 on a negative log10 scale, so that one unit is a factor of ten.

In one assay the target is T1, plasma kallikrein (Homo sapiens, UniProt P03952).
T1 construct: added to sodium citrate collected human or rat plasma in a 96-well microplate; from tissue
T1 sequence (P03952 391-638 limits assumed): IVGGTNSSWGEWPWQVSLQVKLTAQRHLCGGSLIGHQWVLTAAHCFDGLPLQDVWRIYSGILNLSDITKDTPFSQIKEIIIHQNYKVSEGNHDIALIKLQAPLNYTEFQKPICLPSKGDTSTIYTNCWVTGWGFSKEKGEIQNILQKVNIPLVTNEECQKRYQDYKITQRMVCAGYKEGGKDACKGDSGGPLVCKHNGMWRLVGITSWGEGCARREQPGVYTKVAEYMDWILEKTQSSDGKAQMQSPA
T1 sequence (P03952 20-390 partner limits assumed): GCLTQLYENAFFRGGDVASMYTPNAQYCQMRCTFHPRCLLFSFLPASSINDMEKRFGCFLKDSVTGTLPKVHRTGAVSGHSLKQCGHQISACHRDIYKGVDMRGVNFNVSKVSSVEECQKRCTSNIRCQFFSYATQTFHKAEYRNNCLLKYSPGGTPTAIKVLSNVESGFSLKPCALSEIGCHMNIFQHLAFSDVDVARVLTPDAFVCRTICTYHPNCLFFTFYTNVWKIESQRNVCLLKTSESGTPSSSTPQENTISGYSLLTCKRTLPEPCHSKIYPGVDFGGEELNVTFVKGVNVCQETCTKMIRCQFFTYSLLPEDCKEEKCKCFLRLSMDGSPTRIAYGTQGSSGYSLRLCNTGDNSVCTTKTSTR
The assay is described as follows: Neat human plasma assay (fluorogenic peptide), contact pathway-activated plasma. The assay is classed as biochemical. The following applies: sodium citrate human plasma (78% final), 10 nM human FXIIa, 100 μM PFR-AMC, room temperature. The procedure:
To analyze inhibition of plasma kallikrein in an ex vivo setting, the potency of compounds was measure in contact pathway-activated plasma assays. In a fluorogenic peptide substrate assay, test compounds dissolved in DMSO were added to sodium citrate collected human or rat plasma in a 96-well microplate. Alternatively, citrated plasma was collected from rats administered the compounds orally or by IV. 10 nM of human FXIIa (Enzyme Research Laboratories) diluted in PKa buffer (20 mM Tris-HCl, pH 7.5, 150 mM NaCl, 1 mM EDTA, 0.1% PEG-8000, and 0.1% Triton X-100) was added to the plasma, followed by the 100 μM of the profluorescent, synthetic plasma kallikrein substrate PFR-AMC (also diluted in PKa buffer). Final plasma concentration in the reaction was 78%. Fluorescence was immediately monitored by excitation/emission wavelengths of 360 nm/480 nm respectively over a period of 5 minutes in a microplate reader. The resulting linear increase in fluorescence emission (reflecting PKa proteolysis of PFR-AMC substrate) was fit to extract a proteolytic rate (fluorescent units over time), and this rate was subsequently plotted against compound inhibitor concentration. Resulting plots were fit to a standard 4-parameter IC50/IC90 equation to determine min/max values, IC50/90, and slope. All experimental steps were performed at room temperature.

Assay [1] concerns the target human activated kallikrein enzyme (Homo sapiens, UniProt P03952). The assay is described as follows: Inhibition of human activated kallikrein enzyme, fluorogenic peptide substrate assay (500 pM enzyme format). The following applies: 500 pM activated kallikrein, 300 μM PFR-AMC substrate, 30 min preincubation, 10 min reaction, room temperature; read-out: Primary Dose Response Assay: Average EC50. The assay is classed as biochemical. The gist of the method: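 500 pM enzyme preincubated 30 min at room temperature with inhibitor in 20 mM Tris pH 7.5, 150 mM NaCl, 1 mM EDTA, 0.1% PEG-400, 0.1% Triton X-100. Reaction started with 300 μM PFR-AMC and run 10 min at room temperature. AMC fluorescence read at ex 380/em 460 nm, and EC50 values reported as ranges.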

Chain of human activated kallikrein enzyme (P03952 391-638 limits assumed): as the sequence (P03952 391-638 limits assumed) above
Chain of human activated kallikrein enzyme (P03952 20-390 partner limits assumed): as the sequence (P03952 20-390 partner limits assumed) above

Take `O=C(Cc1ncn2ccc(Cl)cc12)Nc1cc(NCc2cn3cc(C4CC4)ccc3n2)ncn1` [Example 1, 2-(7-chloroimidazo[1,5-a]pyridin-1-yl)-N-(6-(((6-cyclopropylimidazo[1,2-a]pyridin-2-yl)methyl)amino)pyrimidin-4-yl)acetamide]: the IC90 at plasma kallikrein lay in the range of 500 to 5000 nM. Moreover, the pEC50 in assay [1] was not below 8.30.

Compound `Cc1cc(N)nc(C)c1CNc1cc(OCc2cn3cc(C4CC4)cc(C#N)c3n2)ncn1` [Example 112, 2-(((6-(((6-amino-2,4-dimethylpyridin-3-yl)methyl)amino)pyrimidin-4-yl)oxy)methyl)-6-cyclopropylimidazo[1,2-a]pyridine-8-carbonitrile] had an IC90 at plasma kallikrein of 500 to 5000 nM. In addition, the pEC50 in assay [1] was not below 8.30.

`O=C(Cc1ncn2ccc(Cl)cc12)Nc1cc(NCc2cn3cc(C4CC4)cc(C4(O)COC4)c3n2)ncn1` [Example 14, 2-(7-chloroimidazo[1,5-a]pyridin-1-yl)-N-(6-(((6-cyclopropyl-8-(3-hydroxyoxetan-3-yl)imidazo[1,2-a]pyridin-2-yl)methyl)amino)pyrimidin-4-yl)acetamide] returned an IC90 at plasma kallikrein not above 500 nM. Also, the pEC50 in assay [1] was not below 8.30.

In the case of `Cc1cc(N)nc(C)c1CNc1cc(N2C[C@@H](O)C[C@@H]2c2cn3cc(C4CC4)ccc3n2)ncn1` [Example 135, (3S,5R)-1-(6-(((6-amino-2,4-dimethylpyridin-3-yl)methyl)amino)pyrimidin-4-yl)-5-(6-cyclopropylimidazo[1,2-a]pyridin-2-yl)pyrrolidin-3-ol], the concentration for an effect of 90% (IC90) on plasma kallikrein is not above 500 nM. Moreover, the pEC50 in assay [1] is not below 8.30.

With `O=C(Cc1ncn2ccc(Cl)cc12)Nc1cc(NCc2cn3cc(C4CC4)cc(CO)c3n2)ccn1` [Example 52, 2-(7-chloroimidazo[1,5-a]pyridin-1-yl)-N-(4-(((6-cyclopropyl-8-(hydroxymethyl)imidazo[1,2-a]pyridin-2-yl)methyl)amino)pyridin-2-yl)acetamide], on plasma kallikrein, the concentration for an effect of 90% (IC90) is not above 500 nM. Moreover, the pEC50 in assay [1] is not below 8.30.

Compound `CN1CCN(c2cc(C3CC3)cn3cc(CNc4cc(NC(=O)Cc5ncn6ccc(Cl)cc56)ncn4)nc23)CC1` [Example 17, 2-(7-chloroimidazo[1,5-a]pyridin-1-yl)-N-(6-(((6-cyclopropyl-8-(4-methylpiperazin-1-yl)imidazo[1,2-a]pyridin-2-yl)methyl)amino)pyrimidin-4-yl)acetamide] gave an IC90 at plasma kallikrein not above 500 nM. Moreover, the pEC50 in assay [1] is not below 8.30.

In the case of `COc1ccc(-n2cnnn2)c(CNc2cc(NCc3cn4cc(C5CC5)ccc4n3)ncn2)c1F` [Example 55, N^4-((6-cyclopropylimidazo[1,2-a]pyridin-2-yl)methyl)-N^6-(2-fluoro-3-methoxy-6-(1H-tetrazol-1-yl)benzyl)pyrimidine-4,6-diamine], the IC90 at plasma kallikrein lay in the range of 500 to 5000 nM. Also, the pEC50 in assay [1] was not below 8.30.

On to `O=C(Cc1ncn2ccc(Cl)cc12)Nc1cc(NCc2cn3cc(C4CC4)ccc3n2)cnn1` [Example 31, 2-(7-chloroimidazo[1,5-a]pyridin-1-yl)-N-(5-(((6-cyclopropylimidazo[1,2-a]pyridin-2-yl)methyl)amino)pyridazin-3-yl)acetamide], for which, at plasma kallikrein, the 90% effect concentration (IC90) was 500 to 5000 nM. In addition, the pEC50 in assay [1] was not below 8.30.

At plasma kallikrein, `CN1C(=O)CN(c2cc(C3CC3)cn3cc(CNc4cc(NC(=O)Cc5ncn6ncc(Cl)cc56)ncn4)nc23)C1=O` [Example 141, 2-(3-chloroimidazo[1,5-b]pyridazin-5-yl)-N-(6-(((6-cyclopropyl-8-(3-methyl-2,4-dioxoimidazolidin-1-yl)imidazo[1,2-a]pyridin-2-yl)methyl)amino)pyrimidin-4-yl)acetamide] had an IC90 of 500 to 5000 nM. Further, the pEC50 in assay [1] is not below 8.30.

On plasma kallikrein, `Cc1cc(N)nc(C)c1CNc1cc(OCc2cn3cc(C4CC4)cc(C4(F)COC4)c3n2)ncn1` [Example 109, N-((6-amino-2,4-dimethylpyridin-3-yl)methyl)-6-((6-cyclopropyl-8-(3-fluorooxetan-3-yl)imidazo[1,2-a]pyridin-2-yl)methoxy)pyrimidin-4-amine] registered an IC90 not above 500 nM. For the same compound, the pEC50 in assay [1] is not below 8.30.

`Cc1cc(N)nc(C)c1CNc1cc(OCc2cn3cc(C4CC4)cc(CO)c3n2)ncn1` [Example 113, (2-(((6-(((6-amino-2,4-dimethylpyridin-3-yl)methyl)amino)pyrimidin-4-yl)oxy)methyl)-6-cyclopropylimidazo[1,2-a]pyridin-8-yl)methanol] registered an IC90 against plasma kallikrein of 5000 to 25000 nM. For the same compound, in assay [1], the pEC50 is not below 8.30.

Source of the values: patent publication US20240382482A1, “PLASMA KALLIKREIN INHIBITORS” (TAKEDA PHARMACEUTICAL COMPANY LIMITED, priority 2021, published 2024).
